# Read-outs that look alike come from different tables or passages of the source.
# Columns and labels:
# σ2R [1] = molecular target: T1, σ2R (Homo sapiens, UniProt Q5BJF2); settings: cited from earlier work; for Kd: no reference given
# T1 construct: cell membranes were incubated with [^3H]DTG; endogenous in cells; host or cells: HeLa control clone (non-specific CRISPR/Cas9 plasmid plus lentiCas9-Blast), membrane preparation
# HeLa cells = experiment: Radiolabeled LDL uptake assay; type: cell-based; settings: control HeLa cells, ligands 1 nM - 500 nM
# Description: Radiolabeled LDL was prepared by incubating human LDL (50 μg/mL) (LP2, Millipore) with [^3H]cholesterol (final concentration 3 μCi/mL) in serum-free MEM for 24 hours at 37 °C, filtered using a 0.2 μm filter, and used immediately. Care was taken not to vortex LDL to avoid aggregation of particles.
# Cells were plated on 6-well plates (1 × 10^5 cells per well) or for 96-well plates (1 × 10^4 cells per well) in MEM with 10% FBS, 100 I.U./ml penicillin, 100 µg/ml streptomycin, 2mM L-glutamine, and 1X MEM non-essential amino acids. After 24 hours, media was removed and cells were incubated with MEM containing 10% lipoprotein-depleted serum (LPDS) (AAJ65182AMG, Fisher Scientific) for an additional 24 hours. […] Cells were washed 3 times in PBS, incubated with scintillation fluid overnight, and counts per minute (cpm) were determined using a scintillation counter MicroBeta[2] Microplate counter 2450.
# [2] = tested on: residual DTG binding site; experiment: Saturation binding on TMEM97 KO HeLa cell membranes; settings: for binding to TMEM97 KO HeLa cells: TMEM97 KO versus control, all three guide RNA sequences; for Kd: TMEM97 KO/Cas9 HeLa cell membranes, saturation binding, N.B. = no binding
# Description: (§1) For the cell membrane preparation for receptor binding, the cell pellets were taken out from the freezer, rinsed with 10 mL ice-cold PBS solution, and homogenized by using Wheaton overhead stirrer (120 Vac Overhead Stirrer, Millville, NJ, USA) at the speed of 2 for 30 sec. Then the cell solution was transferred to a 50 mL conical tube and centrifuged for 20 min at 31,000 × g, 4 °C. After centrifugation, the supernatant was discarded and the pellets were resuspended in 1 mL ice-cold PBS solution and stored at −80 °C freezer.
# (§2) After incubation, the bound ligands were collected with a M-24 Brandel filtration system (Brandel, Gaithersburg, MD, USA) on the glass fiber papers (Whatman grade 934-AH, GE Healthcare Bio-Sciences, Pittsburgh, PA), and counted with a MicroBeta[2] Microplate counter 2450 or Wizard2 Automatic Gamma Counter 2470. All the Kd and Bmax values were calculated from a nonlinear regression method with Prism, and the protein concentrations were determined by the method of Lowry et al.[4] with BSA as a standard.
# [3] = tested on: residual DTG binding site; experiment: Saturation binding on TMEM97/PGRMC1 double KO HeLa cell membranes; settings: Double KO/Cas9 HeLa cell membranes, N.B. = no binding
# Description: as §1, §2
# σ2R [4] = molecular target: T1, σ2R; experiment: Saturation binding on PGRMC1 KO HeLa cell membranes; settings: PGRMC1 KO/Cas9 HeLa cell membranes
# Description: as §1, §2
# σ2R [5] = molecular target: T1, σ2R; experiment: Saturation binding on control (Scramble/Cas9) HeLa cell membranes
# Description: as §1, §2
# [6] = σ2R, ligands previously described, read-out: Kd
# [7] = control (Cas9) HeLa cell membranes, Supplementary Figure 2, duplicates, n=3
# T1 sequence (Q5BJF2 whole entry): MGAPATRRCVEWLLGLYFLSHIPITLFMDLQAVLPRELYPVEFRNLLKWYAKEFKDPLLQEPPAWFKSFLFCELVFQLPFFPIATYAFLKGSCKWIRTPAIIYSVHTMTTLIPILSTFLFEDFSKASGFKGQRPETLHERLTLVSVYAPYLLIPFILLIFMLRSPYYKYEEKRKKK
compound,measurement,setting,value
Cc1ccc2c(c1)[C@H]1CN(C)CC[C@H]1N2C(=O)CSc1nnnn1-c1ccc(Cl)cc1 [AG-205],Kd,"σ2R [1]; against σ2R, read-out: Kd against σ2R",~1000 nM
same,Ki,"σ2R [1]; displacing DTG, no unit and reference not given",~1260 nM
COc1cc2c(cc1OC)CN(CCCCNC(=O)c1cc(C)ccc1OC)CC2 [RHM-1],Kd,σ2R [1]; [6],~0.66 nM
"COc1cc2c(cc1OC)CN(CCCCNC(=O)c1cc(I)cc(OC)c1OC)CC2 [RHM-4, N-(4-(6,7-dimethoxy-3,4-dihydroisoquinolin-2(1H)-yl)butyl)-2,3-dimethoxy-5-iodo-benzamide]",effect on uptake of LDL labeled with [3H]cholesterol,HeLa cells,blocking the uptake of LDL
same,Kd,σ2R [1]; [6],~0.2 nM
COc1ccc(C)cc1NC(=O)OC1CC2CCCC(C1)N2CCCCCCCCCCN (stereo not drawn) [SW43],Kd,σ2R [1]; [6],~12 nM
Cc1ccccc1N=C(N)Nc1ccccc1C [[^3H]DTG],binding to TMEM97 KO HeLa cells,[2],"large, but incomplete, reduction"
same,Kd,[2]; read-out: Kd,302 ± 80.2 nM
same,Kd,[3]; read-out: Kd,403 ± 110 nM
"COc1cc2c(cc1OC)CN(CCCCNC(=O)c1cc(I)cc(OC)c1OC)CC2 [[^125I]RHM-4, [^125I]N-(4-(6,7-dimethoxy-3,4-dihydroisoquinolin-2(1 H)-yl)butyl)-2,3-dimethoxy-5-iodo-benzamide]",Kd,σ2R [4]; saturation binding,2.66 ± 0.12 nM
same,Kd,"σ2R [5]; Scramble/Cas9 control HeLa cell membranes, saturation binding, 1 μM (+)-pentazocine to mask σ1R for [3H]DTG",0.88 ± 0.04 nM
same,Kd,σ2R [5]; [7],1.1 ± 0.2 nM
"COc1cc2c(cc1OC)CN(CCCCNC(=O)c1cc([125I])cc(OC)c1OC)CC2 [[^125I]RHM-4, [^125I]N-(4-(6,7-dimethoxy-3,4-dihydroisoquinolin-2(1 H)-yl)butyl)-2,3-dimethoxy-5-iodo-benzamide]",Bmax,σ2R [4],2475 ± 51 fmol/mg
same,Bmax,σ2R [5]; Scramble/Cas9 control HeLa cell membranes,2545 ± 37 fmol/mg
same,Bmax,σ2R [5]; [7],2234.0 fmol/mg
same,binding to TMEM97 KO HeLa cells,[2],complete reduction in binding
same,Kd,[2],N.B.
same,Kd,[3],N.B.

# From article PMC6238005, “Sigma-2 Receptor/TMEM97 and PGRMC-1 Increase the Rate of Internalization of LDL by LDL Receptor through the Formation of a Ternary Complex” (Scientific Reports, 2018)
